Experiment: in vitro
Details: for CLint scaled at 0.5 µM: pH 7.4, Clint; for Percent Remaining (%) 60 min: 1 h
Description: Buffer solutions were prepared as follows: • a. Buffer A: 0.1 M monobasic potassium phosphate buffer containing 1.0 mM EDTA. • b. Buffer B: 0.1 M dibasic potassium phosphate buffer containing 1.0 mM EDTA. • c. Buffer C: 0.1 M potassium phosphate buffer containing 1.0 mM EDTA was adjusted to pH 7.4 by titrating 700 mL of Buffer B with Buffer A while monitoring with a pH meter. • 2. An NADPH stock solution (6 mM) was prepared by dissolving NADPH into Buffer C. • 3. Spiking solutions were prepared for the reference compound (ketanserin) and the test compounds as follows: • a. A 500 μM spiking solution of the reference compound (ketanserin) was generated by adding 10 μL of a 10 mM stock solution of ketanserin in DMSO into 190 μL acetonitrile. A 1.5 μM spiking solution in microsomes (0.75 mg/mL) was generated by adding 1.5 μL of the 500 μM spiking solution and 18.75 μL of 20 mg/mL rat liver microsomes into 479.75 μL of Buffer C while cooling with ice. • b. […] A 0.75 μM spiking solution in microsomes (0.75 mg/mL) was generated by adding 1.5 μL of the 250 μM spiking solution and 18.75 μL of 20 mg/mL rat liver microsomes into 479.75 μL of Buffer C while cooling with ice. • 4. 30 μL of 1.5 μM spiking solution containing 0.75 mg/mL microsomes solution was dispensed into assay plates designated for different time points (0 min, 5 min, 15 min, 30 min, and 45 min; or 0 min, 15 min, 30 min, 45 min, and 60 min as shown in Tables 1-5 below) while cooling with ice. • 5. For the 0 min time point assay plate, 135 μL of ACN containing IS followed immediately by 15 μL of the 6 mM NADPH stock solution were added to the wells of the 0 min assay plate. • 6. All assay plates other than the 0 min assay plate were pre-incubated at 37° C. for 5 min, and then 15 μL of the 6 mM NADPH stock solution was added to the wells of the assay plates to start the reaction and timing. At the appropriate time (5 min, 15 min, 30 min, 45 min, or 60 min), 135 μL of ACN containing IS was added to the wells of the corresponding assay plates, respectively, to stop the reaction. • 7. After quenching, the plates were shaken in a vibrator (IKA, MTS 2/4) for 10 min (600 rpm/min) and then centrifuged at 5594 g for 15 min (Thermo Multifuge×3R). • 8. After centrifugation, 50 μL of the supernatant from each well was transferred into a 96-well sample plate containing 50 μL of ultrapure water (Millipore, ZMQS50F01) for LC/MS analysis.

[1] = rat, microsomes, 0 h, 0.5 µM, pH 7.4
[2] = rat, microsomes, 0.5 µM, pH 7.4
[3] = rat, microsomes, 0.25 h, 0.5 µM, pH 7.4
[4] = rat, microsomes, 0.5 h, 0.5 µM, pH 7.4
[5] = rat, microsomes, 0.75 h, 0.5 µM, pH 7.4

In the case of `[2H]C1NC([2H])C(c2ccc(-n3cc4cccc(C(N)=O)c4n3)cc2)C([2H])C1[2H]` (stereo not shown) [Example 7, 2-(4-(piperidin-3-yl-2,4,5,6-d4)phenyl)-2H-indazole-7-carboxamide], the “Percent Remaining (%) 0 min” value [1] is reported as 100%, the “Percent Remaining (%) 5 min” value [2] is reported as 112.62% and the “Percent Remaining (%) 15 min” value [3] is reported as 94.47%. The “Percent Remaining (%) 30 min” value [4] was 84.9%, the “Percent Remaining (%) 45 min” value [5] was 83.06% and the CLint scaled at 0.5 µM (rat, microsomes) was 21.1 mL/min/kg. The half-life at 0.5 µM (rat, microsomes, pH 7.4, T1/2) was 118 min.

In the case of `[2H]c1c([2H])c(-n2cc3cccc(C(N)=O)c3n2)c([2H])c([2H])c1C1CCCNC1` (stereo not shown) [Example 8, 2-(4-(piperidin-3-yl)phenyl-2,3,5,6-d4)-2H-indazole-7-carboxamide], the “Percent Remaining (%) 0 min” value [1] is reported as 100.00%, the “Percent Remaining (%) 15 min” value [3] is reported as 91.49% and the “Percent Remaining (%) 30 min” value [4] is reported as 79.13%. For the same compound, the “Percent Remaining (%) 45 min” value [5] was 80.74%, the “Percent Remaining (%) 60 min” value [2] was 56.02% and the CLint scaled at 0.5 µM (rat, microsomes) was 30.7 mL/min/kg. For the same compound, the half-life at 0.5 µM (rat, microsomes, pH 7.4, T1/2) was 81 min.

For `[2H]c1c([2H])c(C2([2H])CCCNC2[2H])c([2H])c([2H])c1-n1cc2cccc(C(N)=O)c2n1` (stereo not shown) [Example 9, 2-(4-(piperidin-3-yl-2,3-d2)phenyl-2,3,5,6-d4)-2H-indazole-7-carboxamide], the “increase in rat liver microsome metabolic stability” value (rat, 0.5 µM, pH 7.4) was 64%, the “Percent Remaining (%) 0 min” value [1] was 100.00% and the “Percent Remaining (%) 15 min” value [3] was 98.91%. The “Percent Remaining (%) 30 min” value [4] was 83.70%, the “Percent Remaining (%) 45 min” value [5] was 79.62% and the “Percent Remaining (%) 60 min” value [2] was 75.27%. For the same compound, the CLint scaled at 0.5 µM (rat, microsomes) was 18.8 mL/min/kg and the half-life at 0.5 µM (rat, microsomes, pH 7.4, T1/2) was 132 min.

For `[2H]c1c([2H])c(-n2nc3c(C(N)=O)cccc3c2[2H])c([2H])c([2H])c1[C@@H]1CCCNC1` [Example 15, (S)-2-(4-(piperidin-3-yl)phenyl-2,3,5,6-d4)-2H-indazole-3-d-7-carboxamide], the “Percent Remaining (%) 0 min” value [1] was 100.00%, the “Percent Remaining (%) 15 min” value [3] was 77.88% and the “Percent Remaining (%) 30 min” value [4] was 67.35%. The “Percent Remaining (%) 45 min” value [5] was 56.14%, the “Percent Remaining (%) 60 min” value [2] was 44.60% and the CLint scaled at 0.5 µM (rat, microsomes) was 46.4 mL/min/kg. For the same compound, the half-life at 0.5 µM (rat, microsomes, pH 7.4, T1/2) was 53.5 min.

In the case of `O=C(c1ccc(F)cc1)C1CCN(CCn2c(=O)[nH]c3ccccc3c2=O)CC1` [ketanserin], the “Percent Remaining (%) 0 min” value (rat liver microsomes, 0 min, Table 1 (Example 16)) is reported as 100.00%, the “Percent Remaining (%) 0 min” value (rat liver microsomes, 0 min, Table 2 (Example 17)) is reported as 100% and the “Percent Remaining (%) 0 min” value (rat liver microsomes, 0 min, Table 3 (Example 18)) is reported as 100.00%. For the same compound, the “Percent Remaining (%) 0 min” value (rat liver microsomes, 0 min, Table 4 (Example 19)) was 100.00%, the “Percent Remaining (%) 0 min” value (rat liver microsomes, 0 min, Table 5 (Example 20)) was 100.00% and the “Percent Remaining (%) 5 min” value (rat liver microsomes, Table 1 (Example 16)) was 65.84%. The “Percent Remaining (%) 5 min” value (rat liver microsomes, Table 2 (Example 17)) was 94.13%, the “Percent Remaining (%) 5 min” value (rat liver microsomes, Table 3 (Example 18)) was 78.33% and the “Percent Remaining (%) 5 min” value (rat liver microsomes, Table 4 (Example 19)) was 78.33%. For the same compound, the “Percent Remaining (%) 5 min” value (rat liver microsomes, Table 5 (Example 20)) was 82.83%, the “Percent Remaining (%) 15 min” value (rat liver microsomes, 15 min, Table 1 (Example 16)) was 41.07% and the “Percent Remaining (%) 15 min” value (rat liver microsomes, 15 min, Table 2 (Example 17)) was 61.07%. For the same compound, the “Percent Remaining (%) 15 min” value (rat liver microsomes, 15 min, Table 3 (Example 18)) was 45.04%, the “Percent Remaining (%) 15 min” value (rat liver microsomes, 15 min, Table 4 (Example 19)) was 45.04% and the “Percent Remaining (%) 15 min” value (rat liver microsomes, 15 min, Table 5 (Example 20)) was 51.29%. For the same compound, the “Percent Remaining (%) 30 min” value (rat liver microsomes, 30 min, Table 1 (Example 16)) was 17.68%, the “Percent Remaining (%) 30 min” value (rat liver microsomes, 30 min, Table 2 (Example 17)) was 32.18% and the “Percent Remaining (%) 30 min” value (rat liver microsomes, 30 min, Table 3 (Example 18)) was 21.55%. For the same compound, the “Percent Remaining (%) 30 min” value (rat liver microsomes, 30 min, Table 4 (Example 19)) was 21.55%, the “Percent Remaining (%) 30 min” value (rat liver microsomes, 30 min, Table 5 (Example 20)) was 25.82% and the “Percent Remaining (%) 45 min” value (rat liver microsomes, 45 min, Table 1 (Example 16)) was 9.13%. The “Percent Remaining (%) 45 min” value (rat liver microsomes, 45 min, Table 2 (Example 17)) was 21.24%, the “Percent Remaining (%) 45 min” value (rat liver microsomes, 45 min, Table 3 (Example 18)) was 10.67% and the “Percent Remaining (%) 45 min” value (rat liver microsomes, 45 min, Table 4 (Example 19)) was 10.67%. The “Percent Remaining (%) 45 min” value (rat liver microsomes, 45 min, Table 5 (Example 20)) was 15.08%, the CLint scaled at 0.5 µM (rat, pooled rat liver microsomes, rat liver microsomes, Table 1 (Example 16)) was 188 mL/min/kg and the CLint scaled at 0.5 µM (rat, pooled rat liver microsomes, rat liver microsomes, Table 2 (Example 17)) was 142 mL/min/kg. The CLint scaled at 0.5 µM (rat, pooled rat liver microsomes, rat liver microsomes, Table 3 (Example 18)) was 179 mL/min/kg, the CLint scaled at 0.5 µM (rat, pooled rat liver microsomes, rat liver microsomes, Table 4 (Example 19)) was 179 mL/min/kg and the CLint scaled at 0.5 µM (rat, pooled rat liver microsomes, rat liver microsomes, Table 5 (Example 20)) was 154 mL/min/kg. It also gave a half-life at 0.5 µM (rat, pooled rat liver microsomes, pH 7.4, T1/2, rat liver microsomes, Table 1 (Example 16)) of 13.2 min, a half-life at 0.5 µM (rat, pooled rat liver microsomes, pH 7.4, T1/2, rat liver microsomes, Table 2 (Example 17)) of 17.5 min and a half-life at 0.5 µM (rat, pooled rat liver microsomes, pH 7.4, T1/2, rat liver microsomes, Table 3 (Example 18)) of 13.9 min. For the same compound, the half-life at 0.5 µM (rat, pooled rat liver microsomes, pH 7.4, T1/2, rat liver microsomes, Table 4 (Example 19)) was 13.9 min and the half-life at 0.5 µM (rat, pooled rat liver microsomes, pH 7.4, T1/2, rat liver microsomes, Table 5 (Example 20)) was 16.1 min.

Source: US11384062B2 (CombiPhos Catalysts, Inc., priority 2017, dated 2022)
